Data reported in PMC9354565 (The journal of physical chemistry. B, 2022).
Where “and” joins values, the source holds several entries; their conditions need not be identical. Equal entries are not always repeated. Where two headings read alike, the source gives them in different places.

Legend:
[1] = pH measurement of probes in the HTRF assay buffer; assay type: physicochemical; conditions: for pH value of probe in the buffer: 30 mM probe; for pH value of the buffer with BZA: Figure 6C
[2] = reported data, no reference given; cited from earlier work
[3] = solubility observed in the HTRF screening; assay type: physicochemical; conditions: at 10 mM in the HTRF assay
[4] = biological target: ST2 (Homo sapiens) (UniProt Q01638); assay: BLI; conditions: cited from earlier work
[5] = biological target: T1, recombinant human ST2-Fc-Histag (human, UniProt Q01638 19-328); assay: AlphaScreen or HTRF
T1 sequence (looked up): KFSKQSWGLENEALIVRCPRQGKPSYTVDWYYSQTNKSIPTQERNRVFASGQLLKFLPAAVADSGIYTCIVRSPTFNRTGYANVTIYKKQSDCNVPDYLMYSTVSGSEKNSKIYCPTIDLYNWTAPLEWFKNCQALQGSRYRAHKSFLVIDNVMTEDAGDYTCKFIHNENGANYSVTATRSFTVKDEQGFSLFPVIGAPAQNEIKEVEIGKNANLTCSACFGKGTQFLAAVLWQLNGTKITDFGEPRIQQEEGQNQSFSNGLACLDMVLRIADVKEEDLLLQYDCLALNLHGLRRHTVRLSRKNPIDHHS

[6] = biological target: T1, recombinant human ST2-Fc-Histag; assay: AlphaScreen or HTRF; remark: listed apart in the source

In the case of `NCc1cccnc1` [AMP, 3-(aminomethyl)pyridine], the “pH value of probe in the buffer” value [1] is given as 9.4 and the pKa [2] is given as 8.34.

In the case of `N=C(N)c1ccccc1` [BZA, benzamidine], the “pH value of the buffer with BZA” value ([1]; 0.12 mM BZA) is reported as 7.5, the “pH value of the buffer with BZA” value ([1]; 3.3 mM BZA) is reported as 10.1 and the “pH value of the buffer with BZA” value ([1]; 30 mM BZA) is reported as 10.8. For the same molecule, the “pH value of probe in the buffer” value [1] was 10.5.

In the case of `O=C(O)c1ccc2ccccc2c1O` [Compound 1], the solubility [3] is reported as “poor solubility”.

For `O=C(O)c1cccnc1` [NA, nicotinic acid], the “pH value of probe in the buffer” value [1] was 5.1.

For `NC(=O)c1cccnc1` [NAM, nicotinamide], the “pH value of probe in the buffer” value [1] was 7.2.

In the case of `O=C(O)c1ccccc1O` [SA, salicylic acid], the “pH value of probe in the buffer” value [1] is reported as 4.1.

For IL33 (from UniProt O95760), the Kd [4] is given as 2.23 nM.

B1: recombinant human IL33, un-biotinylated (ligand)
chain: SITGISPITEYLASLSTYNDQSITFALEDESYEIYVEDLKKDEKKDKVLLSYYESQHPSNESGDGVDGKMLMVTLSPTKDFWLHANNKEHSVELHKCEKPLPDQAFFVLHNMHSNCVSFECKTDPGVFIGVKDNHLALIKVDSSENLCTENILFKLSET
With B1 the IC50 [5] was 2.25 ± 0.98 nM, the “IC50 of one of two independent measurements” value [5] was 2.94 nM and 1.5 nM and the IC50 [6] was 3.7 ± 0.29 nM. For the same molecule, the “IC50 of one of two independent measurements” value [6] was 3.49 nM and 3.9 nM.
